In US20060100226A1, “2-Thiopyrimidinones as therapeutic agents” (priority 2004, published 2006):
pIC50: −log10 of the molar value.

What was measured:
murine MEKK2 (mMEKK2) [1] = target: T1, murine MEKK2 (mMEKK2) (Mus musculus, UniProt Q61083); assay: MEKK2 PhosphoELISA (mMEKK2/MKK4); assay type: biochemical; settings: substrate MKK4/SKK1 (unactive), ATP final 10 μM, O.D. 450 nm
T1 sequence (Q61083 1-619): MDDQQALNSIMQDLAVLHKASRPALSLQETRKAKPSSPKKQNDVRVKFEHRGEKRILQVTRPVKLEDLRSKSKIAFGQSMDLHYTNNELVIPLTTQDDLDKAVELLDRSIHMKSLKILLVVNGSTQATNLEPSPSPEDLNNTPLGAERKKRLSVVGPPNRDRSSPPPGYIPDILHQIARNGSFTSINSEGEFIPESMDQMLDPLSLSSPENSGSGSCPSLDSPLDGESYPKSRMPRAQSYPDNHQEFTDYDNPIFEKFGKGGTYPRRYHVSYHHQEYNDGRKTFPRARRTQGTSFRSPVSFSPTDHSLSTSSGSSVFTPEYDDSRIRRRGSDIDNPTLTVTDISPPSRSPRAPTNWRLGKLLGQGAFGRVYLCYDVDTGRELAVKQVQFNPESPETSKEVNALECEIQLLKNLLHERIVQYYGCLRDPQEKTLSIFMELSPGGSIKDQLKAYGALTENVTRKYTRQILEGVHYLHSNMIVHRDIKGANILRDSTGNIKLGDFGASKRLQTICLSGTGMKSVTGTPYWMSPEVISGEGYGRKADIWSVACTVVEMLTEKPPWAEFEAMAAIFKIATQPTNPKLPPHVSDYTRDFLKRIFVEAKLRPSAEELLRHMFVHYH
Description: Another useful method for assessing protein kinase inhibition, and specifically MEKK2 inhibition, of compounds of the invention involves the MEKK2 phospho-antibody enzyme-linked immunosorbent assay (PhosphoELISA). This screening panel, which involves relatively few steps, is a useful indicator of potential inhibitors of MEKK2. Reactions to murine MEKK2 are observed as optical density measurements at an absorbance of 450 nm. Inhibitory activities can be expressed in terms of IC50, where IC50 is the molar concentration of compound required to inhibit protein kinase binding by 50%.
A phospho-antibody enzyme-linked immunosorbent assay (PhosphoELISA) was used to screen potential inhibitors of MEKK2. The assay was performed as follows: Compounds to be tested were weighed and solubilized in DMSO (Sigma) to a stock concentration of 10 mM. Serial dilutions starting from 1 mM were prepared with additional DMSO. These dilutions were further diluted to 250 μM in kinase reaction buffer [20 mM Hepes pH 7.5, 5 mM MgCl2, 1 mM DTT (Dithiothreitol-Sigma), 1 mM NaVO4 (sodium vanadate- Sigma). A 25 μl aliquot of this solution was transferred to a glutathione coated 96-well microplate (Pierce). A stock aliquot containing 50-125 ng of murine MEKK2 (mMEKK2) was added to each well and incubated on the microplate for 10 minutes at room temperature. A 25 μl solution of MKK4/SKK1 (unactive) was diluted 1:200 in kinase assay buffer and added to the reaction plate followed by 50 μl of 25 μM ATP (adenosine triphosphate) to afford a final well concentration of 10 μM. The reaction was allowed to proceed for 60 minutes at room temperature before washing 3 times with wash buffer [100 mM phosphate pH 7.5, 0.05% TWEEN 20 (Sigma)]. A solution of anti-phospho MKK4/SEK1 antibody (Calbiochem) and biotin anti rabbit IgG (Jackson Immunoresearch) was diluted 1:2500 in kinase reaction buffer and added to the appropriate wells. The reaction was incubated for 60 minutes at room temperature. The microplate was washed 3 times with wash buffer and 100 ul of streptavidin horseradish peroxidase (HRP-Pierce) was added and incubated for 30 minutes at room temperature. The microplate was washed 3 times with wash buffer and 100 μl of TMB (3,3′,5,5′-tetramethylbenzidine-Sigma) was added. The assay was allowed to develop for 15-20 minutes then the reaction was stopped with the addition of 100 μl of 0.2 N sulfuric acid. The optical density (O.D.) of the plate was read on the Victor™ plate reader using the absorbance at 450 nm.

murine MEKK2 (mMEKK2) [2] = target: T1, murine MEKK2 (mMEKK2); assay: TR-FRET kinase assay (mMEKK2/MBP); assay type: biochemical; settings: substrate biotin MBP, 60 minutes at room temperature
Procedure: In one approach, MEKK2 inhibitory activity of compounds of the invention can be assessed using the time-resolved Fluorescence Resonance Energy Transfer (TR-FRET) assay detailed in Example 5. In this assay, the excitation energy of one fluorescent molecule (the donor) is transferred by a resonance mechanism to a nearby second fluorescent molecule (the acceptor), which then releases its fluorescent energy through fluorescent emission. This fluorescent energy is measured using a time-resolved fluorescence measurement protocol (LANCE high count 615/665); excitation occurred with 1,000 flashes at 325 nm, measurement was delayed by 100 μs, and data were acquired for 50 μs at 615 and 665 nm.
A TR-FRET kinase assay was used to screen potential inhibitors of MEKK2. The assay was performed as follows: Compounds to be tested were weighed and solubilized in DMSO (Sigma) to a stock concentration of 10 mM. Serial dilutions starting from 1 mM were prepared with additional DMSO. These dilutions were further diluted to 250 μM in kinase reaction buffer [20 mM Hepes pH 7.5, 5 mM MgCl2, 1 mM DTT (Dithiothreitol-Sigma), 1 mM NaVO4 (sodium vanadate-Sigma). A 25 μl aliquot of this solution was transferred to a black 96-well nonbinding surface microplate (Fisher). A stock aliquot containing […] of murine MEKK2 (mMEKK2) was diluted in the kinase reaction buffer and incubated with the compounds on the microplate for 10 minutes. A 25 μl aliquot of a 138 ng solution of biotin MBP (myelin basic protein—Upstate Biotechnology) was added to the reaction followed by 25 ul of a 25 ng solution of anti-phospho MBP antibody (Upstate Biotechnology) diluted in kinase reaction buffer. Finally an aliquot (50 μl) of a 5 uM solution of ATP (adenosine triphosphate) was added and the reaction was allowed to proceed for 60 minutes at room temperature. The reaction was stopped by the addition of 50 μL of a 12.5 ng solution of europium labeled anti-mouse IgG (Perkin Elmer) and 45 ng of Cy5 labeled streptavidin (Jackson Immunoresearch) in termination buffer (20 mM Hepes pH 7.5, 100 mM EDTA; Sigma). The assay was allowed to equilibrate for 45 minutes before placing the plate on the Victor™ plate reader. The plate was read using the 615/665 LANCE protocol.

| Compound | pIC50 (murine MEKK2 (mMEKK2) [1]) | pIC50 (murine MEKK2 (mMEKK2) [2]) |
| --- | --- | --- |
| N#Cc1c(-c2ccc(-c3cc4ccccc4s3)cc2)nc(SCc2cccc(NC(=O)c3ccc(Cl)c(Cl)c3)c2)[nH]c1=O [Example 2aa, N-{3-[4-(4-Benzo[b]thiophen-2-yl-phenyl)-5-cyano-6-oxo-1,6-dihydro-pyrimidin-2-ylsulfanylmethyl]-phenyl}-3,4-dichloro-benzamide] | > 6.00 | – |
| N#Cc1c(-c2cccc(OC(F)(F)F)c2)nc(SCc2cccc(NC(=O)c3ccc(Cl)c(Cl)c3)c2)[nH]c1=O [Example 2cc, 3,4-Dichloro-N-{3-[5-cyano-6-oxo-4-(3-trifluoromethoxy-phenyl)-1,6-dihydro-pyrimidin-2-ylsulfanylmethyl]-phenyl}-benzamide] | > 6.00 | – |
| CC(C)(C)OC(=O)n1c(-c2cccc(-c3nc(SCc4cccc(NC(=O)c5ccc(Cl)c(Cl)c5)c4)[nH]c(=O)c3C#N)c2)cc2ccccc21 [Example 2jj, 2-(3-{5-Cyano-2-[3-(3,4-dichloro-benzoylamino)-benzylsulfanyl]-6-oxo-1,6-dihydro-pyrimidin-4-yl}-phenyl)-indole-1-carboxylic acid tert-butyl ester] | > 6.00 | – |
| N#Cc1c(-c2cccc(-c3cc4ccccc4[nH]3)c2)nc(SCc2cccc(NC(=O)c3ccc(Cl)c(Cl)c3)c2)[nH]c1=O [Example 2kk, 3,4-Dichloro-N-(3-{5-cyano-4-[3-(1H-indol-2-yl)-phenyl]-6-oxo-1,6-dihydro-pyrimidin-2-ylsulfanylmethyl}-phenyl)-benzamide] | > 5.30 | – |
| N#Cc1c(-c2c[nH]c3ccccc23)nc(SCc2cccc(NC(=O)c3ccc(Cl)c(Cl)c3)c2)[nH]c1=O [Example 2ll, 3,4-Dichloro-N-{3-[5-cyano-4-(1H-indol-3-yl)-6-oxo-1,6-dihydro-pyrimidin-2-ylsulfanylmethyl]-phenyl}-benzamide] | > 5.30 | – |
| N#Cc1c(-c2c[nH]c3ccc(Br)cc23)nc(SCc2cccc(NC(=O)c3ccc(Cl)c(Cl)c3)c2)[nH]c1=O [Example 2mm, N-{3-[4-(5-Bromo-1H-indol-3-yl)-5-cyano-6-oxo-1,6-dihydro-pyrimidin-2-ylsulfanylmethyl]-phenyl}-3,4-dichloro-benzamide] | > 6.00 | – |
| N#Cc1c(-c2cccc(Br)c2)nc(SCc2cccc(NC(=O)c3ccc(Cl)c(Cl)c3)c2)[nH]c1=O [Example 2nn, N-{3-[4-(3-Bromo-phenyl)-5-cyano-6-oxo-1,6-dihydro-pyrimidin-2-ylsulfanylmethyl]-phenyl}-3,4-dichloro-benzamide] | > 6.00 | – |
| COc1cccc(-c2nc(SCc3cccc(NC(=O)c4ccc(F)c(F)c4)c3)[nH]c(=O)c2C#N)c1 [Example 2oo, N-{3-[5-Cyano-4-(3-methoxy-phenyl)-6-oxo-1,6-dihydro-pyrimidin-2-ylsulfanylmethyl]-phenyl}-3,4-difluoro-benzamide] | > 5.30 | – |
| COc1cccc(-c2nc(SCc3cccc(NC(=O)Nc4ccc(Cl)c(Cl)c4)c3)[nH]c(=O)c2C#N)c1 [Example 3a, 1-{3-[5-Cyano-4-(3-methoxy-phenyl)-6-oxo-1,6-dihydro-pyrimidin-2-ylsulfanylmethyl]-phenyl}-3-(3,4-dichloro-phenyl)-urea] | > 6.00 | – |
| COc1cccc(-c2nc(SCc3cccc(NCc4cccc(OCCN(C)C)c4)c3)[nH]c(=O)c2C#N)c1 [Example 4a] | < 4.40 | – |
| CN(CCOc1ccc(-c2nc(SCc3cccc(NC(=O)c4ccc(Cl)c(Cl)c4)c3)[nH]c(=O)c2C#N)cc1)c1ccncc1 [Example 4aa] | 4.70 | – |
| COc1cccc(-c2nc(SCc3cccc(NCc4cnc(O)nc4O)c3)[nH]c(=O)c2C#N)c1 [Example 4d] | < 4.40 | – |
| CCc1nc(C)c(-c2nc(SCc3cccc(NC(=O)c4ccc(Cl)c(Cl)c4)c3)[nH]c(=O)c2C#N)[nH]1 [Example 4dd] | < 4.40 | – |
| COc1cccc(-c2nc(SCCCn3cnc4c(NC(=O)c5ccccc5)ncnc43)[nH]c(=O)c2C#N)c1 [Example 4ee] | < 4.40 | – |
| COc1cccc(-c2nc(SCCCn3cnc(NC(=O)c4ccc(Cl)c(Cl)c4)n3)[nH]c(=O)c2C#N)c1 [Example 4ff] | < 4.40 | – |
| N#Cc1c(-c2cccc(C(=O)O)c2)nc(SCc2cccc(NC(=O)c3ccc(Cl)c(Cl)c3)c2)[nH]c1=O [Example 4m] | > 4.70 | – |
| N#Cc1c(-c2cccc(F)c2)nc(SCc2cccc(NC(=O)c3ccc(Cl)c(Cl)c3)c2)[nH]c1=O [Example 4o] | – | > 5.30 |
| N#Cc1c(-c2cccc(S(=O)(=O)NCc3ccccc3)c2)nc(SCc2cccc(NC(=O)c3ccc(Cl)c(Cl)c3)c2)[nH]c1=O [Example 4p] | > 5.30 | – |
| N#Cc1c(-c2cccc(-n3cccc3)c2)nc(SCc2cccc(NC(=O)c3ccc(Cl)c(Cl)c3)c2)[nH]c1=O [Example 4q] | > 6.00 | – |
| N#Cc1c(-c2ccc(-n3ccnc3)cc2)nc(SCc2cccc(NC(=O)c3ccc(Cl)c(Cl)c3)c2)[nH]c1=O [Example 4r] | > 5.30 | – |
| N#Cc1c(-c2ccc(-n3cccc3)cc2)nc(SCc2cccc(NC(=O)c3ccc(Cl)c(Cl)c3)c2)[nH]c1=O [Example 4s] | > 6.00 | – |
| N#Cc1c(-c2ccc(-n3cccn3)cc2)nc(SCc2cccc(NC(=O)c3ccc(Cl)c(Cl)c3)c2)[nH]c1=O [Example 4t] | > 4.70 | – |
| N#Cc1c(-c2cccc(-n3ccnc3)c2)nc(SCc2cccc(NC(=O)c3ccc(Cl)c(Cl)c3)c2)[nH]c1=O [Example 4u] | > 5.00 | – |
| N#Cc1c(-c2cccc(N3CCCC3)c2)nc(SCc2cccc(NC(=O)c3ccc(Cl)c(Cl)c3)c2)[nH]c1=O [Example 4w] | > 6.00 | – |
| CCOC(=O)C1CCN(c2ccccc2-c2nc(SCc3cccc(NC(=O)c4ccc(Cl)c(Cl)c4)c3)[nH]c(=O)c2C#N)CC1 [Example 4x] | < 4.40 | – |
| N#Cc1c(-c2cccc(NCC[C@@H](O)[C@@H](O)CO)c2)nc(SCc2cccc(NC(=O)c3ccc(Cl)c(Cl)c3)c2)[nH]c1=O [Example 4y] | – | > 5.30 |
| CCN(CC)CCOc1ccc(-c2nc(SCc3cccc(NC(=O)c4ccc(Cl)c(Cl)c4)c3)[nH]c(=O)c2C#N)cc1 [Example 4z] | < 4.40 | – |
